Results from patent US20200216493A1, “ANTIMICROBIAL PEPTIDES” (FERRING B.V., priority 2016, published 2020).
≈ marks a conversion by molar mass, not a printed value.

Key:
E.coli = assay type: cell-based, Escherichia coli; conditions: for MIC ratio Coli/Staph: ratio of E. coli MIC to S. aureus MIC
Description: (§1) This assay was used to determine the minimum concentration of a test compound (i.e., an antimicrobial peptide described herein) able to inhibit the growth of a bacterial strain of interest. This is a standard method for measuring and comparing the potency of peptide-based antibacterial agents (Steinberg et al., Antimicrobial Agents and Chemotherapy 1997, 41 (8) 1738 - 1742 and Wiegand et al., Nature Protocols 2008, 3, 163-175).
(§2) The MIC is reported in units of μg/mL.
(§3) Bacterial cultures were grown by inoculating Mueller-Hinton Broth (MHB) with 3 or 4 representative colony (typical size, color, and shape) from a bacterial strain grown on a LB agar plate. Inoculated liquid cultures were grown at 37° C. with moderate shaking (200-250 rpm) until bacteria produced a visibly turbid suspension. Bacterial inoculum was approximated by measuring the optical density at 600 nm (0D600) of the bacterial culture against a sterile MHB blank. Typically, OD600=0.10 corresponds to ˜1×10^8 cfu/mL for S.aureus and OD600 =0.15 corresponds to ˜1×10^8 cfu/mL for E.coli.
(§4) Test compounds were prepared as stock solutions in vehicle at a concentration 10 times the highest concentration to be tested for antibacterial activity (usually 320 μg/mL stock solutions). 2x serial dilutions in vehicle (at 10× the final test concentrations) of the test compounds were prepared from the test compound stock solutions in a non-binding 96 well plate.
(§5) In a sterile clear flat bottom 96 well plate, 15 μL of each test compound dilution was added to 135 μL of ˜5×10^5 cfu/mL bacterial culture. Each concentration was tested in duplicate. Each experiment contained positive control wells for bacterial growth (i.e., no test compound added to bacteria) and sterility controls wells (i.e., sterile MHB and no test compounds added). 96 well plates containing bacterial cultures and test compounds were incubated at 37° C. for 16-20 hours with shaking at 200 rpm.
(§6) After incubation, the MIC of each test compound was determined by measuring the OD600 of each well using a plate reader. Wells with OD600 >0.08 were considered to have bacterial growth and wells with OD600<0.08 were considered to have no bacterial growth. The lowest concentration of test agent able to inhibit bacterial growth (0D600<0.08 after 16-20 hours) was defined as the MIC.

S.aureus = assay type: cell-based, Staphylococcus aureus
Description: as §1, §2, §3, §4, §5, §6

Row | Compound | MIC E. coli (E.coli) [µg/mL] | MIC ratio Coli/Staph (E.coli) | MIC S. aureus (S.aureus) [µg/mL] | MIC C. difficile (C. difficile) [µg/mL] | MIC B. fragilis (B. fragilis) [µg/mL]
1 | CC[C@H](C)[C@H](NC(=O)[C@@H](Cc1ccccc1)NC)C(=O)N[C@@H](CO)C(=O)N[C@H](CCC(N)=O)C(=O)N[C@@H](C(=O)N[C@H](C(=O)N[C@@H](CO)C(=O)N[C@H]1C(=O)N[C@@H](C)C(=O)N[C@@H](CCCCCN)C(=O)N[C@@H]([C@@H](C)CC)C(=O)O[C@H]1C)[C@@H](C)CC)[C@@H](C)CC [Compound 9, H-D-MePhe-Ile-Ser-D-Gln-D-aIle-Ile-Ser-c(D-Thr-Ala-hLys-Ile)] | 16 (≈ 13 µM) | 123 | 0.13 (≈ 0.106 µM) | 0.12 (≈ 0.0975 µM) | >32
2 | CC[C@H](C)[C@H](NC(=O)[C@@H](Cc1ccccc1)NC)C(=O)N[C@@H](Cc1c[nH]c2ccccc12)C(=O)N[C@H](CCC(N)=O)C(=O)N[C@@H](C(=O)N[C@H](C(=O)N[C@@H](CO)C(=O)N[C@H]1C(=O)N[C@@H](C)C(=O)N[C@@H](CCCCNC(=N)N)C(=O)N[C@@H]([C@@H](C)CC)C(=O)O[C@H]1C)[C@@H](C)CC)[C@@H](C)CC [Compound 2, H-D-MePhe-Ile-Trp-D-Gln-D-aIle-Ile-Ser-c(D-Thr-Ala-Har-Ile)] | >32 | >356 | 0.09 (≈ 0.0663 µM) | 0.06 (≈ 0.0442 µM) | >32
3 | CC[C@H](C)[C@H](NC(=O)[C@@H](Cc1ccccc1)NC)C(=O)N[C@@H](CO)C(=O)N[C@H](CCC(N)=O)C(=O)N[C@@H](C(=O)N[C@H](C(=O)N[C@@H](CO)C(=O)N[C@H]1C(=O)N[C@@H](C)C(=O)N[C@@H](CCCCNC(=N)NC)C(=O)N[C@@H]([C@@H](C)CC)C(=O)O[C@H]1C)[C@@H](C)CC)[C@@H](C)CC [Compound 6, H-D-MePhe-Ile-Ser-D-Gln-D-aIle-Ile-Ser-c(D-Thr-Ala-Har(Me)-Ile)] | 8 (≈ 6.29 µM) | 62 | 0.13 (≈ 0.102 µM) | 0.03 (≈ 0.0236 µM) | >32
